Assay results: patent US8361510B2, “Nanogels for cellular delivery of therapeutics” (Georgia Tech Research Corporation, priority 2008, dated 2013)
Where no end group is shown, it is not given here.

What was measured:
[1] = siRNA release from nanogels in PBS containing 10% fetal bovine serum; format: physicochemical; conditions: after the first 12 hours, 37° C., PBS with 10% fetal bovine serum
Protocol: [formula] The release of solutes from nanogels was performed in 10% serum to simulate physiological conditions. Release experiments were performed by dispersing 200 μL of loaded nanogels in 2.20 mL of 0.01 M phosphate buffered saline containing 10% fetal bovine serum (equilibrated at 37° C.) in 3.2 mL polycarbonate centrifuge tubes (Beckman Coulter, USA). The nanogel suspension was allowed to incubate at 37° C. while shaking. At specific time points, the tubes were centrifuged for […] at 687 000×g (at 37° C.), and an aliquot of supernatant (0.75 mL) was removed for UV-vis analysis. This volume was replaced with fresh buffer. […] The cumulative siRNA released was calculated by calculating the total moles detected in the supernatant as a function of time, as described in Equation 2.
All release studies were performed in triplicate for statistical analysis, using identical nanogel loading and release conditions.

[2] = tested on: EGFR; assay: EGFR expression by immunoblotting in Hey cells; format: cell-based
Protocol: Immunoblotting. Hey cells were plated into 6-well plates (5×10^5/well) and allowed to adhere overnight at 37° C., 5% CO2. The cells were lysed with 100 μL of lysis buffer (50 mM Tris-HCl, pH 7.5, 150 mM NaCl, 2 mM EDTA (Fisher), 2 mM EGTA (Fisher), 1 mM sodium orthovanadate, 2.5 mM sodium pyrophosphate, 1 mM β-gycerolphosphate, 1 mM phenylmethanesulfonyl fluoride, 10 μg/mL aprotinin, 10 μg/mL leupeptin, 1% Triton X-100, and 5% glycerol), and the cell lysates sonicated four times for five seconds each. The lysates were cleared by centrifugation at 11,000×g rcf for […] at 4° C. Cell lysates were prepared for analysis by the addition of an equal volume of Laemmli 2× sample buffer. The samples were heated to 95° C. for […] to denature the proteins. The proteins were separated on a 10% SDS-PAGE gel and transferred onto nitrocellulose. The blots were blocked with either 5% nonfat dry milk (NFDM) or 5% bovine serum albumin (BSA) in 10 mM Tris-buffered saline, pH 7.5 plus 1% Tween 20 (TBST, BioRad) for 1 hour at room temperature. The blots were probed with anti-EGFR antibody (Cell Signaling, Danvers, Mass.; cat. no. 4405) or with a β-actin antibody (Millipore, Billerica, Mass.; Mab1501) diluted in 5% NFDM or 5% BSA overnight, with shaking at 4° C. For EphA2 detection, the blots were probed with an anti-EphA2 polyclonal antibody (Santa Cruz Biotechnology, Santa Cruz, Calif.; sc-294). The blots were washed three times with TBST and probed with goat anti-rabbit IgG (Santa Cruz, sc-2004) or with goat anti-mouse IgG (Santa Cruz, sc-2005) linked to horseradish peroxidase (HRP). Bands were visualized on film (Pierce) using the ECL reagent, SuperSignal West Pico™ (Pierce).
As described above, we chose siRNA targeting EGFR; knockdown of this receptor is non-lethal, but has clinical relevance in the treatment of drug resistant ovarian carcinomas. To determine if we could effectively knockdown EGFR in vitro, EGFR siRNA was encapsulated at a concentration of 16.6 μg of EGFR siRNA/mg of nanogels, using the loading technique described above. […]

In the case of “YSA-conjugated nanogels: core/shell pNIPMAm nanogels with YSA peptide coupled to shell amines via maleimide (EMCA) (YSAYPDSVPMMSC; also: coupled to nanogel shell amines via maleimide (EMCA))”, the “siRNA retained in the nanogels” value [1] is reported as “approximately 70%”, the “EGFR expression relative to controls” value ([2]; Example 1, 4 h incubation, harvested at 48 hours, 1 mg nanogels/5×10^5 cells) is reported as “small, statistically insignificant decrease” and the “EGFR expression of control treatments compared to untreated cells” value ([2]; Example 2) is reported as “slight decrease”.
